Broadly, the IC50 is the concentration at which inhibition is half-maximal. A higher IC50 goes with a need for much substance.

One test has as its target T1, IRAK1 (Homo sapiens, UniProt P51617).
T1 construct: purchased Reaction Biology (RBC), HotSpot kinase assay
Put plainly: RBC HotSpot Kinase Assay, IRAK1. The class given is biochemical. The following applies: isolated kinase, 33P-ATP. The essentials:
(§1)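 Catalytic activity, not binding, is measured: substrate transphosphorylation from 33P-ATP is captured on P81 filters after 2 hours at room temperature. Enzyme is the easiest-expressed form, sometimes truncated. Compound and kinase are preincubated 20 min before ATP addition.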

The next test has as its system MOLM14 D835Y cells. Put plainly: MOLM14 D835Y cell viability assay (Cell Titer Glo). The class given is cell-based. How it is done: (§2) Both cell lines have activated FLT3 receptors, each of which carry additional resistance mutations in the kinase domain (D835Y and F691L, respectively).
(§3) MOLM14 D835Y and MOLM14 F691L cells were grown in RPMI-1640 media supplemented with 20% fetal bovine serum (FBS). For viability/cytotoxicity assessments, cells were seeded into 1536-well white polystyrene tissue culture-treated Greiner plates using a Multidrop Combi dispenser (ThermoFisher), in final volume 5 μL of growth media per well, at a density of 1000 cells per well. After cell addition, 23 nL of test compound were transferred into individual wells (22 doses tested for each test compound, with a 1:2 dilution series starting at 10 μM) via a 1536 pin-tool. Bortezomib (final concentration 2.3 μM) was used as a positive control for cell cytotoxicity. Plates were incubated for 48 hours at standard incubator conditions covered by a stainless steel gasketed lid to prevent evaporation. 48 hours post compound addition, 3 μL of Cell Titer Glo (Promega) were added to each well and plates were incubated at room temperature for 15 minutes with the stainless-steel lid in place. Luminescence readings were taken using a Viewlux imager (PerkinElmer) with a 2 second exposure time per plate.
(In general: In ATP-based viability assays light output follows the ATP content of the culture.)

The subject of the next test is MOLM14 F691L cells. Put plainly: MOLM14 F691L cell viability assay (Cell Titer Glo). The class given is cell-based. As to the method:
as §2, §3

The next test deals with T2, IRAK4 (Homo sapiens, UniProt Q9NWZ3).
T2 sequence (Q9NWZ3 1-460): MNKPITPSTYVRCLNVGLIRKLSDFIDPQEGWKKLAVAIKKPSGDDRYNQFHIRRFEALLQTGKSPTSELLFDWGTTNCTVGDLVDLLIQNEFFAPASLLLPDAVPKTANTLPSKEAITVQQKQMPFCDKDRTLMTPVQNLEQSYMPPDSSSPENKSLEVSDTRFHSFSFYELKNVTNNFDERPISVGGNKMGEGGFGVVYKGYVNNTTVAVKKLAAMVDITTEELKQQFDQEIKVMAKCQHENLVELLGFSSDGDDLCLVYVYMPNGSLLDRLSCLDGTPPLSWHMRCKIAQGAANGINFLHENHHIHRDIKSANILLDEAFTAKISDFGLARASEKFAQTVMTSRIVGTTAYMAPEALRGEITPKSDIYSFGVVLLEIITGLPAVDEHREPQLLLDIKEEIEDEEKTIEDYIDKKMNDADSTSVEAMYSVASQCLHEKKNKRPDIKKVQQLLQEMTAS
Put plainly: RBC HotSpot Kinase Assay, IRAK4. The test is classed as biochemical. Also noted: purchased Reaction Biology (RBC), HotSpot kinase assay. The following applies: isolated kinase, 33P-ATP. The essentials:
as §1

Another test addresses T3, FLT3 (Homo sapiens, UniProt P36888).
T3 sequence (P36888 27-993): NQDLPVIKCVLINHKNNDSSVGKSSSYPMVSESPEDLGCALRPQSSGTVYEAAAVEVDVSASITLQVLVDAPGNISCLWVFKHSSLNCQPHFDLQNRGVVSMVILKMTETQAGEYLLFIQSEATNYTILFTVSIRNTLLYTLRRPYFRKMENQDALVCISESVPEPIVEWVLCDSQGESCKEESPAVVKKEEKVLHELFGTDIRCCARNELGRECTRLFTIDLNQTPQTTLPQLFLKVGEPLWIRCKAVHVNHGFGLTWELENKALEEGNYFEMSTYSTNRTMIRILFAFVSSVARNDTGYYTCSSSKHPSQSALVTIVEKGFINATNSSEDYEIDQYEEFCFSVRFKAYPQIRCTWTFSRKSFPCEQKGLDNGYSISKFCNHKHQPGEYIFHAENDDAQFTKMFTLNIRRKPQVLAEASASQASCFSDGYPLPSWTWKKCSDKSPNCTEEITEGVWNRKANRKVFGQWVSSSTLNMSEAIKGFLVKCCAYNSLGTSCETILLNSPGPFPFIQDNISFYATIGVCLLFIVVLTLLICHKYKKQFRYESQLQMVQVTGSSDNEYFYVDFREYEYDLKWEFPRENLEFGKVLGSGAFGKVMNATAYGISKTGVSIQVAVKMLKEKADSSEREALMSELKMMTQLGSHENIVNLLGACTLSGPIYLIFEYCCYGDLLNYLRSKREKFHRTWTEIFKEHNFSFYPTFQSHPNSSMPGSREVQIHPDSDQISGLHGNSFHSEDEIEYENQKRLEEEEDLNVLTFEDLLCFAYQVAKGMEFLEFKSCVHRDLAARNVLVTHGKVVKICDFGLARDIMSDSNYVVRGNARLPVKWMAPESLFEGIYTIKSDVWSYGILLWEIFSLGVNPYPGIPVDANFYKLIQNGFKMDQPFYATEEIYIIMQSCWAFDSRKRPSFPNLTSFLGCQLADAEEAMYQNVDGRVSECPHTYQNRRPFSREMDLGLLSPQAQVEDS
Put plainly: RBC HotSpot Kinase Assay, FLT3. The test is classed as biochemical. Also noted: purchased Reaction Biology (RBC), HotSpot kinase assay. As to conditions: isolated kinase, 33P-ATP. Put shortly: as §1

T1 sequence (P51617 whole entry): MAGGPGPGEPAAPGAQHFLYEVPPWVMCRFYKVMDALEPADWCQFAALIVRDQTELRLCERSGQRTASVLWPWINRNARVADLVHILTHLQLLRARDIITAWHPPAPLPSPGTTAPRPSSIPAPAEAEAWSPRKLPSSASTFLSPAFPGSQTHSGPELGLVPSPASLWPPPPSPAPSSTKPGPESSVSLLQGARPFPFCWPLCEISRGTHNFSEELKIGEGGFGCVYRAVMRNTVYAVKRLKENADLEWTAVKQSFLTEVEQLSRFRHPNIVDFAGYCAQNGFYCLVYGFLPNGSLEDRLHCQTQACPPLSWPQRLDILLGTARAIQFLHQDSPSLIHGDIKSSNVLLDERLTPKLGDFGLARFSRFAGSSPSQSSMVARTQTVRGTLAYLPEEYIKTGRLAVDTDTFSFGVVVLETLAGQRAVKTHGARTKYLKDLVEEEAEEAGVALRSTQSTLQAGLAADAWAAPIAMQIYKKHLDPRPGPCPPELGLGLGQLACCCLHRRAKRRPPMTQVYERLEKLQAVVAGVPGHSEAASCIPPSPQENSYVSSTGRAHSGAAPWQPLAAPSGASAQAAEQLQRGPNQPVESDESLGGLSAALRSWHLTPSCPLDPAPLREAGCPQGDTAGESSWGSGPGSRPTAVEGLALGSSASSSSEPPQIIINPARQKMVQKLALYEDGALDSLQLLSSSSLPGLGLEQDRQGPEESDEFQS

Consider `CC(O)(c1cn2c(-c3nc(N[C@H]4CNCC[C@@H]4F)c(F)cc3F)cnc2cn1)C(F)(F)F` (single isomer, unassigned) [Compound 94], for which the IC50 on IRAK1 came to 8 nM; in the test on MOLM14 D835Y cells (48 hours) it was 77 nM; with MOLM14 F691L cells (48 hours), 864 nM; against IRAK4, 0.8 nM; against FLT3, 1 nM.

`CC1(c2cn3c(-c4cccc(N[C@@H]5CCCNC5)n4)cnc3cn2)CC1` [Compound 2, (R)-6-(6-(1-methylcyclopropyl)imidazo[1,2-a]pyrazin-3-yl)-N-(piperidin-3-yl)pyridin-2-amine]: the IC50 on IRAK1 was 67 nM; in the test with MOLM14 D835Y cells (Homo sapiens, MOLM-14, 48 h), 7 nM; in the test with MOLM14 F691L cells (Homo sapiens, MOLM-14, 48 h), 34 nM; at IRAK4, 0.7 nM; against FLT3 it was less than 0.5 nM.

As for `F[C@H]1CNC[C@@H]1Nc1cccc(-c2cnc3cnc(C4(C(F)(F)F)CC4)cn23)n1` [Compound 8, N-((3S,4S)-4-fluoropyrrolidin-3-yl)-6-(6-(1-(trifluoromethyl)cyclopropyl)imidazo[1,2-a]pyrazin-3-yl)pyridin-2-amine], the IC50 is 138 nM on IRAK1; 44 nM with MOLM14 D835Y cells (Homo sapiens, MOLM-14, 48 h); 376 nM in the test with MOLM14 F691L cells (Homo sapiens, MOLM-14, 48 h); 2 nM on IRAK4; less than 0.5 nM on FLT3.

Take `FC(F)(F)C1(c2cn3c(-c4cccc(N[C@@H]5CCCNC5)n4)cnc3cn2)CC1` [Compound 9, (R)-N-(piperidin-3-yl)-6-(6-(1-(trifluoromethyl)cyclopropyl)imidazo[1,2-a]pyrazin-3-yl)pyridin-2-amine]: the IC50 against IRAK1 was 126 nM; with MOLM14 D835Y cells (Homo sapiens, MOLM-14, 48 h) it was 18 nM; in the test with MOLM14 F691L cells (Homo sapiens, MOLM-14, 48 h), 106 nM; against IRAK4, 7 nM; against FLT3, less than 0.5 nM.

Regarding `FC(F)(F)C1(c2cn3c(-c4cccc(N[C@H]5CNCC56CC6)n4)cnc3cn2)CC1` [Compound 12, (R)-N-(6-(6-(1-(trifluoromethyl)cyclopropyl)imidazo[1,2-a]pyrazin-3-yl)pyridin-2-yl)-5-azaspiro[2.4]heptan-7-amine], the IC50 on IRAK1 was 165 nM; in the test on MOLM14 D835Y cells (Homo sapiens, MOLM-14, 48 h) it was 7 nM; with MOLM14 F691L cells (Homo sapiens, MOLM-14, 48 h) it was 72 nM; against IRAK4, 3 nM; against FLT3, less than 0.5 nM.

Regarding `F[C@H]1CCNC[C@@H]1Nc1cccc(-c2cnc3cnc(C4(C(F)(F)F)CC4)cn23)n1` [Compound 13, N-((3S,4S)-4-fluoropiperidin-3-yl)-6-(6-(1-(trifluoromethyl)cyclopropyl)imidazo[1,2-a]pyrazin-3-yl)pyridin-2-amine], the IC50 against IRAK1 was 77 nM; in the test with MOLM14 D835Y cells (Homo sapiens, MOLM-14, 48 h), 21 nM; with MOLM14 F691L cells (Homo sapiens, MOLM-14, 48 h), 159 nM; against IRAK4 it was 5 nM; against FLT3, less than 0.5 nM.

For the compound `FC(F)c1cn2c(-c3cccc(N[C@@H]4CCCNC4)n3)cnc2cn1` [Compound 17, (R)-6-(6-(difluoromethyl)imidazo[1,2-a]pyrazin-3-yl)-N-(piperidin-3-yl)pyridin-2-amine], the IC50 is 288 nM at IRAK1; 10 nM with MOLM14 D835Y cells (Homo sapiens, MOLM-14, 48 h); 88 nM in the test on MOLM14 F691L cells (Homo sapiens, MOLM-14, 48 h); 5 nM against IRAK4; less than 0.5 nM on FLT3.

Regarding `FC(F)c1cn2c(-c3cccc(N[C@H]4CNC[C@@H]4C(F)(F)F)n3)cnc2cn1` [Compound 19, 6-(6-(difluoromethyl)imidazo[1,2-a]pyrazin-3-yl)-N-((3R,4S)-4-(trifluoromethyl)pyrrolidin-3-yl)pyridin-2-amine], the IC50 against IRAK1 was 32 nM; with MOLM14 D835Y cells (Homo sapiens, MOLM-14, 48 h) it was 2 nM; with MOLM14 F691L cells (Homo sapiens, MOLM-14, 48 h), 19 nM; against IRAK4, less than 0.5 nM; against FLT3 it was less than 0.5 nM.

Take `CC(C)(O)c1cn2c(-c3cccc(N[C@H]4CNC[C@@H]4F)n3)cnc2cn1` [Compound 28, 2-(3-(6-(((3S,4S)-4-fluoropyrrolidin-3-yl)amino)pyridin-2-yl)imidazo[1,2-a]pyrazin-6-yl)propan-2-ol]: the IC50 is 220 nM at IRAK1; 94 nM with MOLM14 D835Y cells (Homo sapiens, MOLM-14, 48 h); 502 nM in the test with MOLM14 F691L cells (Homo sapiens, MOLM-14, 48 h); 0.7 nM against IRAK4; less than 0.5 nM against FLT3.

For `FC(F)(F)COc1cn2c(-c3cccc(N[C@H]4CNCC45CC5)n3)cnc2cn1` [Compound 40, (R)-N-(6-(6-(2,2,2-trifluoroethoxy)imidazo[1,2-a]pyrazin-3-yl)pyridin-2-yl)-5-azaspiro[2.4]heptan-7-amine], the IC50 is 101 nM at IRAK1; 23 nM with MOLM14 D835Y cells (Homo sapiens, MOLM-14, 48 h); 152 nM in the test with MOLM14 F691L cells (Homo sapiens, MOLM-14, 48 h); 2 nM at IRAK4; less than 0.5 nM on FLT3.

With `c1cc(N[C@@H]2CCCNC2)nc(-c2cnc3cnc(C4CC4)cn23)c1` [Compound 48, (R)-6-(6-cyclopropylimidazo[1,2-a]pyrazin-3-yl)-N-(piperidin-3-yl)pyridin-2-amine], the IC50 was 60 nM against IRAK1; 9 nM with MOLM14 D835Y cells (Homo sapiens, MOLM-14, 48 h); 38 nM in the test with MOLM14 F691L cells (Homo sapiens, MOLM-14, 48 h); 3 nM against IRAK4; 0.6 nM on FLT3.

`F[C@H]1CNC[C@@H]1Nc1cccc(-c2cnc3cnccn23)n1` [Compound 68, N-((3S,4S)-4-fluoropyrrolidin-3-yl)-6-(imidazo[1,2-a]pyrazin-3-yl)pyridin-2-amine]: the IC50 against IRAK1 is 727 nM; with MOLM14 D835Y cells (Homo sapiens, MOLM-14, 48 h), 47 nM; in the test on MOLM14 F691L cells (Homo sapiens, MOLM-14, 48 h), 473 nM; on IRAK4, 4 nM; at FLT3 it was less than 0.5 nM.

For the compound `FC(F)COc1cn2c(-c3cccc(N[C@@H]4CCCNC4)n3)cnc2cn1` [Compound 75, (R)-6-(6-(2,2-difluoroethoxy)imidazo[1,2-a]pyrazin-3-yl)-N-(piperidin-3-yl)pyridin-2-amine], the IC50 against IRAK1 is 504 nM; in the test on MOLM14 D835Y cells (Homo sapiens, MOLM-14, 48 h) it was 15 nM; with MOLM14 F691L cells (Homo sapiens, MOLM-14, 48 h) it was 158 nM; on IRAK4 it was 4 nM; against FLT3, less than 0.5 nM.

Turning to `O=S1(=O)CCCN1c1cn2c(-c3cccc(N[C@H]4CNC[C@@H]4F)n3)cnc2cn1` [Compound 95, 2-(3-(6-(((3S,4S)-4-fluoropyrrolidin-3-yl)amino)pyridin-2-yl)imidazo[1,2-a]pyrazin-6-yl)isothiazolidine 1,1-dioxide], the IC50 at IRAK1 is 43 nM; with MOLM14 D835Y cells (Homo sapiens, MOLM-14, 48 h), 21 nM; in the test with MOLM14 F691L cells (Homo sapiens, MOLM-14, 48 h), 193 nM; on IRAK4, 1 nM; against FLT3 it was less than 0.5 nM.

Turning to `O=S1(=O)CCCCN1c1cn2c(-c3nc(N[C@@H]4CCCNC4)c(F)cc3F)cnc2cn1` [Compound 101, (R)-2-(3-(3,5-difluoro-6-(piperidin-3-ylamino)pyridin-2-yl)imidazo[1,2-a]pyrazin-6-yl)-1,2-thiazinane 1,1-dioxide], the IC50 at IRAK1 was 175 nM; with MOLM14 D835Y cells (Homo sapiens, MOLM-14, 48 h), 217 nM; in the test on MOLM14 F691L cells (Homo sapiens, MOLM-14, 48 h), 1540 nM; against IRAK4, 24 nM; on FLT3, 0.9 nM.

Source of the values: patent US12612410B2 (CHILDREN'S HOSPITAL MEDICAL CENTER, priority 2020, dated 2026).
